Where a name gives a salt, the structure may show the parent alone. Read-outs that look alike come from different tables or passages of the source.
How the values were obtained:
[1] = target: Human or Rat Nicotinic Acetylcholine α4β2 receptor (UniProt P09483+P12390); assay: Binding assay for Human or Rat Nicotinic Acetylcholine α4β2 receptor ([3H] Cytisine); conditions: [3H] Cytisine 2.5 nM, rat brain frontal cortex or recombinant human cDNA expressed in CHO cells
Description: Binding assay for Human or Rat Nicotinic Acetylcholine α4β2 receptor
Compounds can be evaluated according to the following procedures.
Materials and Methods: • Receptor source: Rat brain frontal cortex or recombinant human cDNA expressed in CHO cells • Radioligand: [^3H] Cytisine 15-40 Ci/mmol • Final ligand concentration—[2.5 nM] • Non-specific determinant: Epibatidine-[0.1 μM] • Reference compound: Epibatidine • Positive control: Epibatidine Incubation Conditions:
Increasing concentrations of test compounds or standard were incubated with membrane receptors and radioligand in 120 mM NaCl, 2.5 mM KCl, 1 mM CaCl2, 1 mM MgCl2 and 50 mM TRIS-HCl (pH 7.4) for 60 minutes at room temperature. The reaction was terminated by rapid vacuum filtration onto the glass fiber filters. Radioactivity trapped onto the filters was determined and compared to the control values in order to ascertain any interactions of the test compound(s) with either cloned human or rat receptor binding site.
Literature Reference: Bunnelle W. H., Daanen J. F., Ryther K. B., Schrimpf M. R., Dart M. J., Gelain A., Meyer M. D., Frost J. M., Anderson D. J., Buckley M., Curzon P., Cao Y-J., Puttfarcken P., Searle X., Ji J., Putman C. B., Surowy C., Toma L. and Barlocco D. Structure-Activity Studies and Analgesic Efficacy of N-(3-Pyridinyl)-Bridged Bicyclic Diamines, Exceptionally Potent Agonists at Nicotinic Acetylcholine Receptors. J. Med. Chem. 2007, 50, […].

[2] = target: T1, recombinant human α4β2 nicotinic acetylcholine receptor (Homo sapiens, UniProt P17787+P43681); assay: Determination of IC50 and Kb values, aequorin luminescence assay in CHO cells; type: cell-based
T1 construct: expressed in transfected cells
Description: Determination of IC50 and Kb Values for Nicotinic Acetylcholine α4β2 Receptor Ligands
A stable CHO cell line expressing recombinant human α4β2 nicotinic acetylcholine receptor transiently expressing aequorin protein was used for cell-based assay. The assay offers a non-radioactive based approach to determine binding of a compound to ligand gated ion channels. In this specific assay, the level of intracellular calcium which is modulated by activation or inhibition of the channel is measured. Both the channel and aequorin genes are expressed at high level under the control of powerful CMV promotor.
The above cells were grown in 96 well clear bottom white plates in Hams F12 medium containing 10% fetal bovine serum (FBS). Prior to the addition of compounds and/or agonist, cells were serum starved for six hours. Coelentarazine (a prosthetic group for aequorin protein) was added in the medium containing 0.1% dialyzed serum and incubated overnight at 27° C. Cells were washed with assay buffer and increasing concentration of the test compound or standard were added to the plate for antagonist mode. A fixed concentration of the agonist (eipbatidine) was injected into the plate and luminescence was measured for 10 seconds. For evaluation of the compound in agonist mode, increasing concentration of the standard or test compound was injected and the luminescence was measured. Luminescence units were plotted against the compound concentrations using Graphpad software. IC50 values of the compounds were defined as the concentration required in reducing the luminescent units by 50%. The Kb values were calculated by feeding the concentration of the agonist used in the assay and its EC50 value in the same software.
Literature References: Karadsheh M. S., Shah M. S., Tang X., Macdonald R. L. and Stitzel J. A. Functional characterization of mouse α4β2 nicotinic acetylcholine receptors stably expressed in HEK293T cells. J. Neurochem. 2004, 91, 1138-1150.

[3] = Rodent Pharmacokinetic Study; conditions: Wistar, in vivo, Wister rat male; for AUC(0-t) / Cmax / Tmax / half-life: 5 mg/kg; for bioavailability: P.O 5 mg/kg vs I.V 5 mg/kg
Description: Rodent Pharmacokinetic Study
Male wistar rats (230-280 grams) obtained from NIN (National Institute of Nutrition, Hyderabad, India) were used as an experimental animal. Three to five animals were housed in each cage. Animals were kept fasted over night and maintained on a 12 hours light/dark cycle. […]
At each time point blood was collected by jugular vein. Plasma was stored frozen at −20° C. until analysis. The concentrations of the NCE compound in plasma were determined using LC-MS/MS method. Schedule time points: Pre dose 0.25, 0.5, 1, 1.5, 2, 3, 4, 6, 8, 10, 12 and 24 hours after dosing (n=3). The NCE compounds were quantified in plasma by validated LC-MS/MS method using solid phase extraction technique. NCE compounds were quantified in the calibration range of 1-2000 ng/mL in plasma. Study samples were analyzed using calibration samples in the batch and quality control samples spread across the batch. Pharmacokinetic parameters Cmax, Tmax, AUCs, T112 and Bioavailability were calculated by non-compartmental model using software WinNonlin version 5.0.1.

[4] = Rodent Brain Penetration Study; conditions: in vivo; Wistar rat male, P.O, 5 mg/kg; read-out: Steady State Brain Penetration (Cb/Cp)
Description: Rodent Brain Penetration Study
Male Wistar rats (230-280 grams) obtained from NIN (National Institute of Nutrition, Hyderabad, India) was used as an experimental animal. Three animals were housed in each cage. Animals were given water and food ad libitum throughout the experiment, and maintained on a 12 hours light/dark cycle.
NCE compound was dissolved in water and administered orally. At Tmax (0.5, 1.0 and 2.0) animals were sacrificed to collect the plasma and brain tissue and was homogenized. Plasma and Brain was stored frozen at −20° C. until analysis. The concentrations of the NCE compound in plasma and Brain were determined using LC-MS/MS method.
The NCE compounds were quantified in plasma and brain homogenate by validated LC-MS/MS method using solid phase extraction technique. NCE compounds were quantified in the calibration range of 1-500 ng/mL in plasma and brain homogenate. Study samples were analyzed using calibration samples in the batch and quality control samples spread across the batch. Extents of brain-blood ratio were calculated (Cb/Cp).

Male Wister rats = assay: Reversal of Formalin Induced Nociception; type: in vivo; conditions: rat, p.o., formalin 5% v/v subplantar
Description: Reversal of Formalin Induced Nociception
The anti-nociceptive properties of compounds of this invention were evaluated using a model of pain: the Formalin Induced Nociception model. Male Wister rats (230-280 grams) obtained from N. I. N. (National Institute of Nutrition, Hyderabad, India) was used as experimental animals.
Rats were habituated for 20 minutes in the arena before the experiment was started. Duration of licks, bites and flinches were noted from 0-10 minutes and 20-35 minutes after administration of formalin, subplantar into the right hind paw at concentrations of 5% v/v. 50 μL of water for injection was injected into the right hind paw of the rats of the sham group. Compounds of this invention were administered orally prior to formalin administration.

[5] = antagonist mode, fixed concentration of agonist epibatidine, CHO cells, luminescence, read-out: Kb

T1 sequence (P43681 29-627): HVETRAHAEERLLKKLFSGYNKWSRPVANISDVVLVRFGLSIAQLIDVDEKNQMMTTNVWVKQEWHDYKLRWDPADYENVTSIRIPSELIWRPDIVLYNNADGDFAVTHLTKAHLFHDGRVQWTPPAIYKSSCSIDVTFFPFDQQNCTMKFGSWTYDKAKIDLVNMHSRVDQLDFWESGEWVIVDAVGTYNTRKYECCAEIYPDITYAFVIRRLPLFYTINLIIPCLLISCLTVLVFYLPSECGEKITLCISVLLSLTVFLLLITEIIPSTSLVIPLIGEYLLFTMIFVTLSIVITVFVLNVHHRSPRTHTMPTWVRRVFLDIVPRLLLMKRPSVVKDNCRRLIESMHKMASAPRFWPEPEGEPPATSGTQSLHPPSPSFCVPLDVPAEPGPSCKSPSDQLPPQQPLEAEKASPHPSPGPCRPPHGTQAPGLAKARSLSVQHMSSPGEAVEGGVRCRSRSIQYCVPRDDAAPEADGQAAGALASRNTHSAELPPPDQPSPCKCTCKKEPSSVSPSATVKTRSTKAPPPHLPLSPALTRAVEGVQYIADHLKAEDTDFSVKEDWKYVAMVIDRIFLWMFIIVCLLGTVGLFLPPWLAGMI
T1 sequence (P17787 26-502): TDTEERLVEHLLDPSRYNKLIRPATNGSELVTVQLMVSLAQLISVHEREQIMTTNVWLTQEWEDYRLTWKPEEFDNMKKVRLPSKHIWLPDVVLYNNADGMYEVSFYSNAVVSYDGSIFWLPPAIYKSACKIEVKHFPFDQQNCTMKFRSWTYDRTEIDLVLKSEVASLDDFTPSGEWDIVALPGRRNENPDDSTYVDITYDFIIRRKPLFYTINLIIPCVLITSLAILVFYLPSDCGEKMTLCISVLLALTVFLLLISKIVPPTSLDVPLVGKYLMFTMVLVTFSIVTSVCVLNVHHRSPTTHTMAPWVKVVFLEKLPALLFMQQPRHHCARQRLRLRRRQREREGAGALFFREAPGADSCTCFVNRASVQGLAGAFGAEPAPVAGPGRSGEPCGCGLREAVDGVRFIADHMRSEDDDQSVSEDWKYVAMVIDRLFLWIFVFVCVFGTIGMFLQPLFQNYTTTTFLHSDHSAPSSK

CN1C(COc2cncc(Br)c2)CC2CC21 (centres unmarked) [Example 17, 3-(5-Bromopyridin-3-yloxymethyl)-2-methyl-2-azabicyclo[3.1.0]hexane dihydrochloride]
Ki ([1]; read-out: Ki): 4.2 nM

CN1C(COc2ccc(F)nc2)CC2CC21 (centres unmarked) [Example 15, 3-(2-Fluoropyridin-5-yloxymethyl)-2-methyl-2-azabicyclo[3.1.0]hexane]
Ki ([1]; read-out: Ki): 1.1 nM

CN1C(COc2cccnc2F)CC2CC21 (centres unmarked) [Example 10, 3-(2-Fluoropyridin-3-yloxymethyl)-2-methyl-2-azabicyclo[3.1.0]hexane tartrate]
Ki ([1]; read-out: Ki): 31.9 nM

Fc1ncccc1OCC1CC2CC2N1 (centres unmarked) [Example 9, 3-(2-Fluoropyridin-3-yloxymethyl)-2-azabicyclo[3.1.0]hexane tartrate]
Ki ([1]; read-out: Ki): 17.4 nM

Cc1ncccc1OCC1CC2CC2N1C (centres unmarked) [Example 12, 2-Methyl-3-(2-methylpyridin-3-yloxymethyl)-2-azabicyclo[3.1.0]hexane]
Ki ([1]; read-out: Ki): 231 nM

CN1C(COc2ccc(Cl)nc2)CC2CC21 (centres unmarked) [Example 14, 3-(2-Chloropyridin-5-yloxymethyl)-2-methyl-2-azabicyclo[3.1.0]hexane]
Ki ([1]; read-out: Ki): 3.4 nM

c1cncc(OCC2CCC3CC3N2)c1 (centres unmarked) [Example 19, 3-(Pyridin-3-yloxymethyl)-2-azabicyclo[4.1.0]heptane hydrochloride]
Ki ([1]; read-out: Ki): 8.2 nM

CN1C(COc2cccnc2)CC2CC21 (centres unmarked) [Example 2, 2-Methyl-3-(pyridin-3-yloxymethyl)-2-azabicyclo[3.1.0]hexane]
Ki ([1]; read-out: Ki): 5.5 nM
Kb [2]: 0.4 nM

Cl.Cl.Clc1ccc(OCC2CC3CC3N2)cn1 (centres unmarked) [Example 5, 3-(2-Chloropyridin-5-yloxymethyl)-2-azabicyclo[3.1.0]hexane dihydrochloride]
Ki [1]: 1.5 nM
AUC(0-t) ([3]; iv, I.V): 5380 ± 821 ng·h/mL
Cmax ([3]; iv, I.V): 2720 ± 588 ng/mL
Tmax ([3]; iv, I.V): 4.8 min
half-life ([3]; iv, I.V): 151 ± 25.8 min
bioavailability ([3]; po): 66 ± 12%
AUC(0-t) ([3]; po, P.O): 3510 ± 657 ng·h/mL
Cmax ([3]; po, P.O): 1910 ± 675 ng/mL
Tmax ([3]; po, P.O): 15 min
half-life ([3]; po, P.O): 200 ± 36 min
Kp [4]: 2.34 ± 0.25

Cc1ccc(OCC2CC3CC3N2C)cn1 (centres unmarked) [Example 13, 2-Methyl-3-(2-methylpyridin-5-yloxymethyl)-2-azabicyclo[3.1.0]hexane]
Ki [1]: 0.3 nM
Kb [2, 5]: 5 nM

Cc1ncccc1OCC1CC2CC2N1 (centres unmarked) [Example 3, 3-(2-Methylpyridin-3-yl-oxymethyl)-2-azabicyclo[3.1.0]hexane dihydrochloride]
Ki ([1]; read-out: Ki): 1000 nM

Cl.Cl.Clc1ncccc1OCC1CC2CC2N1 (centres unmarked) [Example 4, 3-(2-Chloropyridin-3-yloxymethyl)-2-azabicyclo[3.1.0]hexane dihydrochloride]
Ki ([1]; read-out: Ki): 17.5 nM
AUC(0-t) ([3]; iv, I.V): 4160 ± 878 ng·h/mL
Cmax ([3]; iv, I.V): 2600 ± 42 ng/mL
Tmax ([3]; iv, I.V): 4.8 min
half-life ([3]; iv, I.V): 93 ± 15 min
bioavailability ([3]; po): 54 ± 23%
AUC(0-t) ([3]; po, P.O): 2160 ± 658 ng·h/mL
Cmax ([3]; po, P.O): 921 ± 268 ng/mL
Tmax ([3]; po, P.O): 15 min
half-life ([3]; po, P.O): 129 ± 30.6 min
Kp [4]: 3.6 ± 0.99

CN1C(COc2cccnc2Cl)CC2CC21 (centres unmarked) [Example 11, 3-(2-Chloropyridin-3-yloxymethyl)-2-methyl-2-azabicyclo[3.1.0]hexane]
Ki ([1]; read-out: Ki): 28.1 nM
Kb [2]: 13.5 nM

Cc1ccc(OCC2CC3CC3N2)cn1 (centres unmarked) [Example 18, 3-(2-Methylpyridin-5-yloxymethyl)-2-azabicyclo[3.1.0]hexane]
Ki [1]: 26.1 nM
Kb [2, 5]: 22 nM

CN1C(COc2cncc(Cl)c2)CC2CC21 (centres unmarked) [Example 16, 3-(5-Chloropyridin-3-yloxymethyl)-2-methyl-2-azabicyclo[3.1.0]hexane]
Ki ([1]; read-out: Ki): 0.37 nM
Kb [2]: 0.4 nM

Brc1cncc(OCC2CC3CC3N2)c1 (centres unmarked) [Example 8, 3-(5-Bromopyridin-3-yloxymethyl)-2-azabicyclo[3.1.0]hexane tartrate]
Ki ([1]; read-out: Ki): 6.4 nM

Cl.Cl.Fc1ccc(OCC2CC3CC3N2)cn1 (centres unmarked) [Example 6, 3-(2-Fluoropyridin-5-yloxymethyl)-2-azabicyclo[3.1.0]hexane dihydrochloride]
Ki ([1]; read-out: Ki): 3.9 nM
Dose (reversal of formalin induced nociception) (Male Wister rats): ≦30 mg/kg, p.o.

Clc1cncc(OCC2CCC3CC3N2)c1 (centres unmarked) [Example 20, 3-(5-Chloropyridin-3-yloxymethyl)-2-azabicyclo[4.1.0]heptane hydrochloride]
Ki ([1]; read-out: Ki): 216 nM

Reference: patent US8735423B2, “Bicyclic compounds as α4β2 nicotinic acetylcholine receptor ligands” (priority 2009, dated 2014)
